Results taken from US10537567B2, “Kinase inhibitors for treatment of disease” (BioAxone BioSciences, Inc., priority 2017, dated 2020).
“Also recorded” adds a separate entry of the source.

Experiments:
[1] = Brain and blood vessel exposure after oral administration; format: in vivo, Sprague Dawley rats
Description: (§1) Adult Sprague Dawley rats (Charles River Laboratories) were used for this experiment. […] One g of tissue was homogenized in 1 mL of 1×PBS. Homogenates were precipitated by pipetting 200 μL of homogenate into a tube using aseptically cut off 1000 μL pipette tips to prevent clogging. Samples are further diluted with 100 μL PBS to aid in precipitation. 900 μL of cold methanol was added to each sample and samples were vortexed for 5 to 10 seconds. Samples were placed at 4° C. for 30 to 40 min and then centrifuged at 10,000 g for 15 min at 4° C. The supernatant is collected and stored at −80° C. until analyzed.
Pathological angiogenesis that occurs in the retina is a major feature of leading blinding diseases, and particularly associated with diabetic retinopathy and age-related macular degeneration.

ROCK1 [2] = biological target: T1, ROCK1 (Homo sapiens, UniProt Q13464); test: IC50 determined at 10 μM ATP; format: biochemical; design: purchased Eurofins Testing (Dundee, Scotland, UK); settings: 10 μM ATP (below Km)
ROCK2 [3] = biological target: T2, ROCK2 (Homo sapiens, UniProt O75116); test: IC50 determined at 10 μM ATP; format: biochemical; design: purchased Eurofins Testing (Dundee, Scotland, UK); settings: for IC50: 10 μM ATP (below Km), * = preliminary
Excerpt: The data in Table 2 were obtained at ATP concentration below those corresponding to Km.
Target sequence in this assay (O75116 whole entry): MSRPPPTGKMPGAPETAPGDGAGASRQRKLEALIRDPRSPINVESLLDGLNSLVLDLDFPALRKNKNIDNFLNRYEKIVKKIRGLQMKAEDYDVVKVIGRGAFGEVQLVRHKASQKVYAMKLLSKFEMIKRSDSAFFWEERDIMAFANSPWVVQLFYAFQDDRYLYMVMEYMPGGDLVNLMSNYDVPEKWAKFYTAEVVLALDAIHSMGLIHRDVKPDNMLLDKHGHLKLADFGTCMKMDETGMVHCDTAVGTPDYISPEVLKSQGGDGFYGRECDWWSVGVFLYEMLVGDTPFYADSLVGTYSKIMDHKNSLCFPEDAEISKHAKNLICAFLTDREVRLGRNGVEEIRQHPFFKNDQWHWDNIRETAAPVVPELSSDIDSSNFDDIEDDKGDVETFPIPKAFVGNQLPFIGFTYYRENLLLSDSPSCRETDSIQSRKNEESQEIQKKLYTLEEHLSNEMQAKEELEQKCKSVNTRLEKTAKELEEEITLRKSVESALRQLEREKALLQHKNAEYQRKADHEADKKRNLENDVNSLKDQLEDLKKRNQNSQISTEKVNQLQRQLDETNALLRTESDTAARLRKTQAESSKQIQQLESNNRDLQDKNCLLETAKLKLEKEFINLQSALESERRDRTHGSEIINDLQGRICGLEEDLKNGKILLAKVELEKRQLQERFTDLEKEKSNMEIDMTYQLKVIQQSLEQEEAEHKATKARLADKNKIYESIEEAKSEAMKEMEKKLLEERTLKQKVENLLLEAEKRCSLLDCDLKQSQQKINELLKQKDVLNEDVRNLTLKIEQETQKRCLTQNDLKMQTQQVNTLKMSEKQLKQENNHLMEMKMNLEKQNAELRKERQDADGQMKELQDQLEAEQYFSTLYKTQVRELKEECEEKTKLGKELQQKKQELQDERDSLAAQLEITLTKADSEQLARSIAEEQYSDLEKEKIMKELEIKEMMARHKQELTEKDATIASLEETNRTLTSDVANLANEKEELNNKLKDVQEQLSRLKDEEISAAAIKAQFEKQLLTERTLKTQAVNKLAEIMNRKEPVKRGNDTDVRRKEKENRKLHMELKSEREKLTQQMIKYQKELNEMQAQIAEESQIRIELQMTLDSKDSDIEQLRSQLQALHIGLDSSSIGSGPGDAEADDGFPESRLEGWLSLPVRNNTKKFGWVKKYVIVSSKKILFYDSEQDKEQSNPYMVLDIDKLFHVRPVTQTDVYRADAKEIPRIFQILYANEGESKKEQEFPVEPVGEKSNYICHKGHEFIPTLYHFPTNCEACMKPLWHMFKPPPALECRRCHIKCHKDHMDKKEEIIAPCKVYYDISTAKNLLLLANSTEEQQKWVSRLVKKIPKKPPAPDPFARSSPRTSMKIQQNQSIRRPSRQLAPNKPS

ROCK2 [4] = biological target: T2, ROCK2; test: Direct filter-binding radiometric kinase assay (Eurofins) at Km ATP; format: biochemical; design: purchased Eurofins Testing (Dundee, Scotland, UK); settings: for ROCK1/ROCK2 (fold difference): IC50 at respective Km ATP
Description: ROCK1 and ROCK2 IC50 determinations were made using ATP concentrations at the Km ATP of 70 μM and 15 μM for ROCK1 and ROCK2, respectively.
For the data shown in Table 4, IC50 inhibition curves were performed at the respective Km for ATP for both ROCK1 and ROCK2. Performing these assays at the Km of ATP gives a better representation of the inhibitory activity. Other comparisons where differing kinases are tested at a single ATP concentration can potentially misrepresent the comparative efficacy since enzyme inhibitory activity tested below the Km for ATP of the enzyme, produces a circumstance where the enzyme is actually not constantly bound with ATP and the reaction velocity becomes sub-optimal.
Target sequence in this assay (O75116 whole entry): as above

PKA [5] = biological target: T3, PKA (Homo sapiens, UniProt P17612); test: Single dose inhibition assay of key AGC class kinases; format: biochemical; settings: 10 μM API
Description: Molecular modeling and rational drug design were used to create and screen over 50 ROCK inhibitors. These ROCK inhibitors were screened for selectivity for ROCK2 and ability to promote neurite outgrowth. Several lead inhibitors came out of this screen and further screened for inhibition of key AGC class kinases by a single dose inhibition assay performed with 10 μM active pharmaceutical ingredient (API). The lead compound is chiral. […] They have different selectivity for ROCK2 (Table 2) and different off-target profiles (Table 1; FIG. 1).

[6] = Oral dosing of cynomolgus monkeys, systemic side effects; format: in vivo; settings: 18 mg/kg oral gavage, 4 monkeys
Description: Oral dosing of 4 cynomolgus monkeys dosed with 18 mg/kg oral BA-1049 by oral gavage were completed to understand potential systemic side effects. The only side effects noticed at this dose was squinting by the monkeys.

468-target kinome screen = test: DiscoverX kinome screen, off-target hits; format: binding, human; settings: 10,000 nM API; for # Hits <10% binding: hit = less than 10% binding (>90% binding inhibition)
Description: (§2) A 468-target kinome screen and a safety screen were carried out to examine the off-target profiles of different kinase inhibitors (DiscoverX, Freemont, Calif.). The kinome screen is a binding assay where API interference of kinase domain/substrate binding is assessed as percent of control. Less than 10% binding (or >90% binding inhibition) is most biologically relevant and considered as a ‘hit’. BA-2017 only had 7 off-target hits compared to BA-1049 and Netarsudil, which both had 11 hits (Table 1) (Studirvant et al. 2016 Bioorg Med Chem Lett. 26(10):2475-2480). […] Published data for Netarsudil were with 200 times less API. […] The NET activity likely helps to decrease IOP but might increase hyperemia, while the SERT activity might have long-term safety consequences (Costagliola et al. 2004 CNS drugs 18(8): p. 475-484).
(§3) In the kinome screen BA-2017 had fewer off-target hits (Table 1) than BA-1049. […] An interesting hit from the kinome screen was on Abl (Table 1), an oncogene that also regulates many cellular activities, including vascular leakage.

PKC Δ = biological target: T4, PKC Δ (Homo sapiens, UniProt Q05655); test: DiscoverX kinome screen; format: binding; settings: 10,000 nM API
T4 construct: are incubated with DNA-tagged kinase domains tagged; DNA tag; purchased DiscoverX
T4 sequence (Q05655 349-603 limits assumed, stated change not applied): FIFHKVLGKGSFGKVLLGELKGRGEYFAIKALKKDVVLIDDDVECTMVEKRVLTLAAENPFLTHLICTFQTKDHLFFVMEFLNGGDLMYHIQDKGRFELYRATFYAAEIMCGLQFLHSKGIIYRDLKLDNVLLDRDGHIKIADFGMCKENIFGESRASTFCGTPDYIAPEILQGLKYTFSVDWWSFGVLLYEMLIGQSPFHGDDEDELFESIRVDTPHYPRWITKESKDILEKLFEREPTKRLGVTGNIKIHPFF
Description: as §2, §3

GRK1 = biological target: T5, GRK1 (Homo sapiens, UniProt Q15835); test: DiscoverX kinome screen; format: binding
T5 construct: are incubated with DNA-tagged kinase domains tagged; DNA tag; purchased DiscoverX
T5 sequence (Q15835 190-455 limits assumed): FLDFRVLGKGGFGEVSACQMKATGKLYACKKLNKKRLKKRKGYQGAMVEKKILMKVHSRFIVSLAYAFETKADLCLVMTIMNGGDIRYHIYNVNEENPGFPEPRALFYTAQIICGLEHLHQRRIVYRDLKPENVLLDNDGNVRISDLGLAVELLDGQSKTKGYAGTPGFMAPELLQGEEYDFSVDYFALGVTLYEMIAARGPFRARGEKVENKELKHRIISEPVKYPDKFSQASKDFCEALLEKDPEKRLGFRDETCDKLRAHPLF
Description: as §2, §3

PKC ε = biological target: T6, PKC ε (Homo sapiens, UniProt Q02156); test: DiscoverX kinome screen; format: binding; settings: 10,000 nM API
T6 construct: are incubated with DNA-tagged kinase domains tagged; DNA tag; purchased DiscoverX
T6 sequence (Q02156 408-668 limits assumed): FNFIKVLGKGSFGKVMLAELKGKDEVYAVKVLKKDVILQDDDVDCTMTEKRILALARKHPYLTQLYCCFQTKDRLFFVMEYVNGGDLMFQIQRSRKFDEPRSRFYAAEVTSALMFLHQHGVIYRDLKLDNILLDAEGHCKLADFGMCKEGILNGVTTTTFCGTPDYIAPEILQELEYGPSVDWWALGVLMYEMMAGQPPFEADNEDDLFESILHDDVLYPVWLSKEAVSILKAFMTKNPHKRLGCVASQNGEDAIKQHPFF
Description: as §2, §3

[7] = biological target: T7, serotonin transporter (SERT) (Homo sapiens, UniProt P31645); test: Safety screen; format: biochemical; settings: 10,000 nM API
T7 construct: purchased DiscoverX
T7 sequence (P31645 whole entry): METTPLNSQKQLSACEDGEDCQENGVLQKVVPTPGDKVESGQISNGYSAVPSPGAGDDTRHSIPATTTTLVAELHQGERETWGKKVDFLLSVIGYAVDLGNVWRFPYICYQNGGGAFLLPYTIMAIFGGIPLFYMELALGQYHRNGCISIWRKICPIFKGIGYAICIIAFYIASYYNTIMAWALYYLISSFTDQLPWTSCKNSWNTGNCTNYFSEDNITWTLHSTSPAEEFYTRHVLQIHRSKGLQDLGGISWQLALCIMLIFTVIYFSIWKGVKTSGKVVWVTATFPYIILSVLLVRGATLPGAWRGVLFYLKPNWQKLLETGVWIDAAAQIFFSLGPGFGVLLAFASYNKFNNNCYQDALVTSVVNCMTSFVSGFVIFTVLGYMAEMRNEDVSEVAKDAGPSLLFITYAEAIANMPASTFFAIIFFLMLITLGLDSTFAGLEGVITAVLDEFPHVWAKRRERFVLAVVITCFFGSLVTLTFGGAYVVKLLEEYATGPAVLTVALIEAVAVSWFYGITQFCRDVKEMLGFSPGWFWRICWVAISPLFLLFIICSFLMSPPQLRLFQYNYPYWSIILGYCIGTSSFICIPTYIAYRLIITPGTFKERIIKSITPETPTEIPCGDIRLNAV
Description: as §2
(§4) These targets include GPCRs, transporters, ion channels, nuclear receptors, non-kinase enzymes.

[8] = biological target: T8, norepinephrine transporter (NET) (Homo sapiens, UniProt P23975); test: Safety screen; format: biochemical; settings: 10,000 nM API
T8 construct: purchased DiscoverX
T8 sequence (P23975 whole entry): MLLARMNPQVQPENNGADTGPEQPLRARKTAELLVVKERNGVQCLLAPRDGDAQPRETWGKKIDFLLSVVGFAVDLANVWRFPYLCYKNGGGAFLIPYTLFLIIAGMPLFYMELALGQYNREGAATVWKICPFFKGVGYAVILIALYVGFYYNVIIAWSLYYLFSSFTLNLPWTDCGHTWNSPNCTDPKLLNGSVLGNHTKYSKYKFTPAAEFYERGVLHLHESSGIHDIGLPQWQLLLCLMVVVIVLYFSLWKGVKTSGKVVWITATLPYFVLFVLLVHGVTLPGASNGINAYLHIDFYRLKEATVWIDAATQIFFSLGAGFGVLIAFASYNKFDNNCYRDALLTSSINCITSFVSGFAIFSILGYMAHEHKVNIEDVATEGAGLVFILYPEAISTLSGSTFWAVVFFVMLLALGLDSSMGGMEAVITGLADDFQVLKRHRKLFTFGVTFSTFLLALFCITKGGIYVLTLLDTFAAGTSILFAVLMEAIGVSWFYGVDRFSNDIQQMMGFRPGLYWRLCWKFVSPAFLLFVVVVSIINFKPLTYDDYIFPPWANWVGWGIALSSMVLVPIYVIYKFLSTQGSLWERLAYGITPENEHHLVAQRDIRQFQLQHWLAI
Description: as §2, §4

ROCK1 [9] = biological target: T1, ROCK1; test: DiscoverX kinome screen; format: binding; design: are incubated with DNA-tagged kinase domains tagged; DNA tag; purchased DiscoverX; settings: 10,000 nM API
Description: as §2, §3
Target sequence in this assay (Q13464 76-338 limits assumed): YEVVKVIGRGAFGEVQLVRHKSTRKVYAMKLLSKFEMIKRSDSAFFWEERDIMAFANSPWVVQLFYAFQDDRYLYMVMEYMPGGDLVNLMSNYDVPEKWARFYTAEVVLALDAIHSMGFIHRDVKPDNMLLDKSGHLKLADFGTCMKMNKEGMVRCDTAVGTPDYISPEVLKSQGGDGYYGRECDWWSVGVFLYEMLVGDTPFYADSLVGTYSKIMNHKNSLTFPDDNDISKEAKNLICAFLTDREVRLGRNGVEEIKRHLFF

ROCK2 [10] = biological target: T2, ROCK2; test: DiscoverX kinome screen; format: binding; design: are incubated with DNA-tagged kinase domains tagged; DNA tag; purchased DiscoverX; settings: 10,000 nM API
Description: as §2, §3
Target sequence in this assay (O75116 92-354 limits assumed): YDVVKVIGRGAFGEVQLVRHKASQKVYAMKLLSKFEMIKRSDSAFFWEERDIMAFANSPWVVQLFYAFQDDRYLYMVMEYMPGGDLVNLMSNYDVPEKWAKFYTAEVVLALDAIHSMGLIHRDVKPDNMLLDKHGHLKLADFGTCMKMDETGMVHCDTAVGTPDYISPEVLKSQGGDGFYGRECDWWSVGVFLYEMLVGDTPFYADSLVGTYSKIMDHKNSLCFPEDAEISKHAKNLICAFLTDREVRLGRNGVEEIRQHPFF

[11] = Penetration and distribution in ocular tissues after topical instillation (LC-MS); format: in vivo, Sprague Dawley rats; settings: topical 3% solution of metabolite, 20 minutes
Description: as §1
For the optic nerve sample, the concentration is shown per length of optic nerve (right y-axis). […] Therefore, drug is available in the retina and optic nerve for treating these tissues affected in glaucoma and other retinal diseases.
In FIG. 14 we examined the ability of metabolite to penetrate the ocular tissues of the eye after topical instillation of a 3% solution of metabolite. In comparison with FIG. 13, that also the metabolite has adequate penetration into ocular and CNS tissue. Of particular note is the penetration in the retina and presence in the optic nerve. All compounds were given topically as eye drops to the eye of adult Sprague Dawley rats. Twenty minutes later the indicated tissues were removed and the parent compound and active metabolite were analyzed by LC/MS.

[12] = followed 24 months; cited from earlier work
PKA [13] = biological target: T3, PKA; settings: cited from earlier work
[14] = cited from earlier work
[15] = clinical studies; cited from earlier work
PKA, PKC and CaMKII = settings: cited from earlier work

SMILES	Exposure in blood vessels [1]	IC50 (ROCK2 [3])	ROCK1/ROCK2 (fold difference) (ROCK2 [4])	Kinome Screen Other (other off-target kinase) (468-target kinome screen)	# Hits <10% binding (468-target kinome screen)	Kinome Screen % inhibition PKC Δ (PKC Δ)	Kinome Screen % inhibition PKC ε (PKC ε)	Safety Screen % inhibition SERT [7]	Safety Screen % inhibition NET [8]	Kinome Screen % inhibition ROCK1 (ROCK1 [9])	Kinome Screen % inhibition ROCK2 (ROCK2 [10])	Hyperemia in humans [15]	also measured
C[C@@H](N)C1CCN(S(=O)(=O)c2cccc3cnccc23)CC1 [BA-1049]	accumulate at high concentrations in blood vessels	240 nM	43.4	none	11	<70%	95%	none	none	>99%	>99%	–	Brain penetrance [1]: is able to cross the blood brain barrier; IC50 (ROCK1 [2]): 3.9 µM; Fold-difference (ROCK2 [3]; ROCK1 vs ROCK2 IC50 at 10 μM ATP): 16; IC50 (ROCK2 [4]; ATP at Km, 15 μM, * = higher purity BA-1076): 599 nM; Inhibition of PKA (PKA [5]): Neither compound inhibited PKA; Side effects [6]: squinting; Off-target activity on GRK1 (GRK1): has some activity toward G-protein couple protein kinase1; also recorded: showed binding to G-protein couple protein kinase1 (GRK1)
C[C@@H](N)C1CCN(S(=O)(=O)c2cccc3c(=O)[nH]ccc23)CC1 [BA-2017]	accumulate at high concentrations in blood vessels	50 nM	16.5	GRK1	7	<85%	94.7%	none	none	>99%	>99%	–	Penetration into ocular tissues [11]: can penetrate ocular tissue
C[C@@H](N)[C@H]1CC[C@H](C(=O)Nc2ccncc2)CC1 [Compound Y27432, Y27432]	–	–	–	–	–	–	–	–	–	–	–	–	Corneal clarity and vision [12]: corneal clarity improved and vision improved
C[C@@H](N)[C@H]1CC[C@H](C(=O)Nc2ccncc2)CC1 [Compound Y-27632, Y-27632]	–	–	–	–	–	–	–	–	–	–	–	–	Binding to PKA (PKA [13]): all bind PKA
Cc1ccc(C(=O)OCc2ccc([C@@H](CN)C(=O)Nc3ccc4cnccc4c3)cc2)c(C)c1 [Netarsudil]	–	–	–	–	–	–	–	–	–	–	–	cause hyperemia (red eyes) as a major side effect	Duration of hyperemia on day 1 ([14]; 0.04% Netarsudil): at least 8 hours; Duration of mild hyperemia ([14]; Dutch belted rabbits): 4 to 8 h
C[C@H]1CNCCCN1S(=O)(=O)c1cccc2cncc(F)c12 [Ripasudil]	–	–	–	–	–	–	–	–	–	–	–	more frequent and of longer duration than Netarsudil; also recorded: cause hyperemia (red eyes) as a major side effect	Inhibition of PKA, PKC and CaMKII (PKA, PKC and CaMKII): both inhibit PKA, PKC and CaMKII
